{"source": "ChEMBL document CHEMBL5137015", "about": "“Design, synthesis, and evaluation of a novel series of mono-indolylbenzoquinones derivatives for the potential treatment of breast cancer” (Eur J Med Chem, 2022)", "key": {"[1]": {"assay": "Toxicity in Balb/c mouse implanted with mouse 4T1 cells assessed as kidney lesions at 50 mg/kg administered intratumorally every four days for 14 days by H&E staining based histopathological analysis", "type": "organism-based", "conditions": "in vivo, other, 336 h, route it(Intratumoral), time 14 day"}, "[2]": {"assay": "Acute toxicity in mouse assessed as death rate ratio at 378 mg/kg, ip measured over 14 days", "type": "organism-based", "conditions": "in vivo, 336 h, time 14 day"}, "MDA-MB-231 [3]": {"tested_on": "MDA-MB-231", "assay": "Induction of apoptosis in human MDA-MB-231 cells assessed as deep cytoplasm at 1 uM incubated for 24 hrs by transmission electron microscopic analysis", "type": "functional, cell-based"}, "4T1 [4]": {"tested_on": "4T1", "assay": "Antitumor activity against mouse 4T1 cells xenografted in Balb/c mouse assessed as disordered nuclei at 200 mg/kg administered topically over the tumor surface every two days for 14 days in the presence of cyanoacrylate", "type": "functional, organism-based", "conditions": "route top, time 14.0 day"}, "[5]": {"assay": "Acute toxicity in mouse assessed as animal death at 5000 mg/kg, po", "type": "organism-based", "conditions": "in vivo"}, "MDA-MB-231 [6]": {"tested_on": "MDA-MB-231", "assay": "Induction of cell cycle arrest in human MDA-MB-231 cells assessed as decrease in G1 phase cells at 10 uM incubated for 24 hrs by PI staining based flow cytometric analysis (reference value: 74.44%)", "type": "functional", "parameters": "scale not given: the % may be the effect or the level left"}, "[7]": {"assay": "Toxicity in Balb/c mouse implanted with mouse 4T1 cells assessed as spleen lesions at 50 mg/kg administered intratumorally every four days for 14 days by H&E staining based histopathological analysis", "type": "organism-based", "conditions": "in vivo, other, 336 h, route it(Intratumoral), time 14 day"}, "MDA-MB-231 [8]": {"tested_on": "MDA-MB-231", "assay": "Induction of apoptosis in human MDA-MB-231 cells assessed as increase in caspase 9 expression at 0.5 to 3 times of IC50 concentration by Western blot analysis", "type": "functional, cell-based"}, "4T1 [9]": {"tested_on": "4T1", "assay": "Antitumor activity against mouse 4T1 cells implanted in Balb/c mouse assessed as nuclei disappearance at 50 mg/kg administered intratumorally every four days for 14 days in the presence of liquid cyanoacrylate", "type": "functional, organism-based", "conditions": "route it(Intratumoral), time 14.0 day"}, "4T1 [10]": {"tested_on": "4T1", "assay": "Antitumor activity against mouse 4T1 cells xenografted in Balb/c mouse assessed as tumor growth inhibition at 50 mg/kg administered intratumorally every four days for 14 days", "type": "functional", "parameters": "scale not given: the % may be the effect or the level left", "conditions": "route it(Intratumoral), time 14 day"}, "MDA-MB-231 [11]": {"tested_on": "MDA-MB-231", "assay": "Induction of apoptosis in human MDA-MB-231 cells assessed as late apoptotic cells by measuring green fluorescence at 0.01 to 1 uM by Annexin V-FITC staining based fluorescence microscopic analysis", "type": "functional, cell-based", "conditions": "dose 0.01-1 µM"}, "HeLa": {"tested_on": "HeLa", "assay": "Antiproliferative activity against human HeLa cells assessed as inhibition of cell growth by MTT assay", "type": "functional, cell-based"}, "[12]": {"assay": "Toxicity in Balb/c mouse implanted with mouse 4T1 cells assessed as liver lesions at 50 mg/kg administered intratumorally every four days for 14 days in the presence of liquid cyanoacrylate by H&E staining based histopathological analysis", "type": "organism-based", "conditions": "in vivo, other, 336 h, route it(Intratumoral), time 14 day"}, "[13]": {"assay": "Toxicity in Balb/c mouse implanted with mouse 4T1 cells assessed as heart lesions at 50 mg/kg administered intratumorally every four days for 14 days by H&E staining based histopathological analysis", "type": "organism-based", "conditions": "in vivo, other, 336 h, route it(Intratumoral), time 14 day"}, "[14]": {"assay": "Toxicity in Balb/c mouse implanted with mouse 4T1 cells assessed as effect on body weight at 50 mg/kg, ip administered every two days for 14 days", "type": "organism-based", "conditions": "in vivo, 336 h, time 14 day"}, "MDA-MB-231 [15]": {"tested_on": "MDA-MB-231", "assay": "Induction of apoptosis in human MDA-MB-231 cells assessed as increase in p53 protein expression at 1 uM incubated for 24 hrs by Western blot analysis", "type": "functional, cell-based"}, "4T1 [16]": {"tested_on": "4T1", "assay": "Antitumor activity against mouse 4T1 cells xenografted in Balb/c mouse assessed as shrinkage of nucleus at 200 mg/kg administered topically over the tumor surface every two days for 14 days in the presence of cyanoacrylate", "type": "functional, organism-based", "conditions": "route top, time 14.0 day"}, "MDA-MB-231 [17]": {"tested_on": "MDA-MB-231", "assay": "Induction of apoptosis in human MDA-MB-231 cells assessed as apoptotic cells at 10 uM incubated for 24 hrs by Annexin V-FITC/propidium iodide staining based flow cytometric method (reference value: 5.68%)", "type": "functional"}, "[18]": {"assay": "Drug metabolism in Balb/c mouse spleen implanted with mouse 4T1 cells assessed as 2-methyl hydroxylation of parent compound causing metabolite formation by LC-MS analysis", "type": "ADME, tissue-based"}, "4T1 [19]": {"tested_on": "4T1", "assay": "Antitumor activity against mouse 4T1 cells xenografted in Balb/c mouse assessed as tumor growth inhibition at 50 mg/kg, ip administered every two days for 14 days", "type": "functional", "parameters": "scale not given: the % may be the effect or the level left", "conditions": "time 14 day"}, "MDA-MB-231 [20]": {"tested_on": "MDA-MB-231", "assay": "Induction of cell cycle arrest in human MDA-MB-231 cells assessed as increase in S phase cells at 10 uM incubated for 24 hrs by PI staining based flow cytometric analysis (reference value: 16.61%)", "type": "functional"}, "MDA-MB-231 [21]": {"tested_on": "MDA-MB-231", "assay": "Induction of apoptosis in human MDA-MB-231 cells assessed as increase in Bax protein expression at 1 uM incubated for 24 hrs by Western blot analysis", "type": "functional, cell-based"}, "[22]": {"assay": "Toxicity in Balb/c mouse xenografted with mouse 4T1 cells assessed as liver lesions at 200 mg/kg administered topically over the tumor surface every two days for 14 days in the presence of cyanoacrylate by H&E staining based histopathological analysis", "type": "organism-based", "conditions": "in vivo, topical_or_ocular, 336 h, route top, time 14 day"}, "MDA-MB-231 [23]": {"tested_on": "MDA-MB-231", "assay": "Induction of apoptosis in human MDA-MB-231 cells assessed as increase in cytochrome C expression at 0.5 to 3 times of IC50 concentration by Western blot analysis", "type": "functional, cell-based"}, "MDA-MB-231 [24]": {"tested_on": "MDA-MB-231", "assay": "Induction of apoptosis in human MDA-MB-231 cells assessed as increase in Bcl-2 protein expression at 1 uM incubated for 24 hrs by Western blot analysis", "type": "functional, cell-based"}, "4T1 [25]": {"tested_on": "4T1", "assay": "Antitumor activity against mouse 4T1 cells implanted in Balb/c mouse assessed as apoptotic rate of dissected tumor cell at 50 mg/kg administered intratumorally every four days for 14 days in the presence of liquid cyanoacrylate by flow cytometric analysis (reference value: 64.83%)", "type": "functional", "conditions": "route it(Intratumoral), time 14 day"}, "[26]": {"assay": "Toxicity in Balb/c mouse implanted with mouse 4T1 cells assessed as lung lesions at 50 mg/kg administered intratumorally every four days for 14 days in the presence of liquid cyanoacrylate by H&E staining based histopathological analysis", "type": "organism-based", "conditions": "in vivo, other, 336 h, route it(Intratumoral), time 14 day"}, "[27]": {"assay": "Toxicity in Balb/c mouse xenografted with mouse 4T1 cells assessed as heart lesions at 200 mg/kg administered topically over the tumor surface every two days for 14 days in the presence of cyanoacrylate by H&E staining based histopathological analysis", "type": "organism-based", "conditions": "in vivo, topical_or_ocular, 336 h, route top, time 14 day"}, "MDA-MB-231 [28]": {"tested_on": "MDA-MB-231", "assay": "Induction of apoptosis in human MDA-MB-231 cells assessed as increase in caspase 3 expression at 0.5 to 3 times of IC50 concentration by Western blot analysis", "type": "functional, cell-based"}, "MDA-MB-231 [29]": {"tested_on": "MDA-MB-231", "assay": "Induction of apoptosis in human MDA-MB-231 cells assessed as increase in cytochrome C expression at 1 uM incubated for 24 hrs by Western blot analysis", "type": "functional, cell-based"}, "4T1 [30]": {"tested_on": "4T1", "assay": "Antitumor activity aginst mouse 4T1 cells implanted in Balb/c mouse assessed as nuclei disappearance at 50 mg/kg, ip administered every two days for 14 days", "type": "functional, organism-based", "conditions": "time 14.0 day"}, "[31]": {"assay": "Toxicity in Balb/c mouse implanted with mouse 4T1 cells assessed as spleen lesions at 50 mg/kg, ip administered every two days for 14 days by H&E staining based histopathological analysis", "type": "organism-based", "conditions": "in vivo, 336 h, time 14 day"}, "[32]": {"assay": "Acute toxicity in mouse assessed as lethal dose measured over 14 days", "conditions": "in vivo, 336 h, time 14 day"}, "MDA-MB-231 [33]": {"tested_on": "MDA-MB-231", "assay": "Induction of apoptosis in human MDA-MB-231 cells assessed as increase in Bax expression at 0.5 to 3 times of IC50 concentration by Western blot analysis", "type": "functional, cell-based"}, "A549": {"tested_on": "A549", "assay": "Antiproliferative activity against human A549 cells assessed as inhibition of cell growth by MTT assay", "type": "functional, cell-based"}}, "note": "Activity calls are given as the source filed them. The rule behind the calls is not given here."}
{"smiles": "Cc1[nH]c2ccccc2c1C1=C(Cl)C(=O)C(Cl)=C(N2CCOCC2)C1=O", "values": [{"measurement": "Activity", "setting": "[1]", "result": "Non-Toxic"}, {"measurement": "Ratio", "setting": "[2]", "result": 0.5}, {"measurement": "Activity", "setting": "MDA-MB-231 [3]", "result": "Active"}, {"measurement": "Activity", "setting": "4T1 [4]", "result": "Active"}, {"measurement": "Activity", "setting": "[5]", "result": "Non-Toxic"}, {"measurement": "Activity", "setting": "MDA-MB-231 [6]", "result": 16.84, "unit": "%"}, {"measurement": "Activity", "setting": "[7]", "result": "Non-Toxic"}, {"measurement": "Activity", "setting": "MDA-MB-231 [8]", "result": "Active"}, {"measurement": "Activity", "setting": "4T1 [9]", "result": "Active"}, {"measurement": "Activity", "setting": "4T1 [10]", "result": 24.6, "unit": "%"}, {"measurement": "Activity", "setting": "MDA-MB-231 [11]", "result": "Active"}, {"measurement": "IC50", "setting": "HeLa", "result": 320, "unit": "nM"}, {"measurement": "Activity", "setting": "[12]", "result": "Non-Toxic"}, {"measurement": "Activity", "setting": "[13]", "result": "Non-Toxic"}, {"measurement": "Activity", "setting": "[14]", "result": "Non-Toxic"}, {"measurement": "Activity", "setting": "MDA-MB-231 [15]", "result": "Active"}, {"measurement": "Activity", "setting": "4T1 [16]", "result": "Active"}, {"measurement": "Activity", "setting": "MDA-MB-231 [17]", "result": 31.69, "unit": "%"}, {"measurement": "Drug metabolism", "setting": "[18]", "result": "Metabolite_Detected"}, {"measurement": "Activity", "setting": "4T1 [19]", "result": 36, "unit": "%"}, {"measurement": "Activity", "setting": "MDA-MB-231 [20]", "result": 28.47, "unit": "%"}, {"measurement": "Activity", "setting": "MDA-MB-231 [21]", "result": "Active"}, {"measurement": "Activity", "setting": "[22]", "result": "Non-Toxic"}, {"measurement": "Activity", "setting": "MDA-MB-231 [23]", "result": "Active"}, {"measurement": "Activity", "setting": "MDA-MB-231 [24]", "result": "Active"}, {"measurement": "Activity", "setting": "4T1 [25]", "result": 76.24, "unit": "%"}, {"measurement": "Activity", "setting": "[26]", "result": "Non-Toxic"}, {"measurement": "Activity", "setting": "[27]", "result": "Non-Toxic"}, {"measurement": "Activity", "setting": "MDA-MB-231 [28]", "result": "Active"}, {"measurement": "Activity", "setting": "MDA-MB-231 [29]", "result": "Active"}, {"measurement": "Activity", "setting": "4T1 [30]", "result": "Active"}, {"measurement": "Activity", "setting": "[31]", "result": "Non-Toxic"}, {"measurement": "LD50", "setting": "[32]", "result": 374, "unit": "mg/kg"}, {"measurement": "Activity", "setting": "MDA-MB-231 [33]", "result": "Active"}, {"measurement": "IC50", "setting": "A549", "result": 210, "unit": "nM"}]}
